Results reported in US7285703B2, “Plant like starches and the method of making them in hosts” (BASF Plant Science GmbH, priority 1998, dated 2007).

Molecular target: T1, maize starch synthase SSI-2 (STSI-2), N-terminally truncated SSI, amino acids 8-52 of SSI-1 deleted, N-terminus CVAELSR/DLG (SEQ ID NO:65) (Zea mays, UniProt O49064, DEL47-91)
T1 sequence (O49064 with tags, fused parts or gaps DEL47-91): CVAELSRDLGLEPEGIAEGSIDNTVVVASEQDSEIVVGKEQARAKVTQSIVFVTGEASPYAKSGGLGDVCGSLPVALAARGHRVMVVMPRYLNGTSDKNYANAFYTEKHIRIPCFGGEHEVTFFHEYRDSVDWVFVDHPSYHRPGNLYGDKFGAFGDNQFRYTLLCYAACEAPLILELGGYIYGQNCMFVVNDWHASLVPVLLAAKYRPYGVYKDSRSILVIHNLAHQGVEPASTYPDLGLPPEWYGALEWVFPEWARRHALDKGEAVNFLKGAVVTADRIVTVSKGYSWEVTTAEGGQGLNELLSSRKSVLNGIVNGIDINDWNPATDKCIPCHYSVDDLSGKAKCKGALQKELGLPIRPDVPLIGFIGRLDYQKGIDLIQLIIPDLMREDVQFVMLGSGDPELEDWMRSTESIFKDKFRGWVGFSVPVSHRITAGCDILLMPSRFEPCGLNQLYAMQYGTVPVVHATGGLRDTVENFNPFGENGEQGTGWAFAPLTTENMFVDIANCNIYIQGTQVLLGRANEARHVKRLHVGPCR
Assay: ADPGlc kinetics of starch synthase SSI-2
Settings: 5 mg/ml amylopectin as primer, 37° C.
Experimental: (SEQ ID NO:64). pExs8 encodes a truncated SSI, SSI-2, with amino acids # 8-52 deleted from the N-terminus of SSI-1 and which has the N-terminal sequence CVAELSR/DLG (SEQ ID NO:65). pExs1d encodes the most truncated form of SSI, SSI-3, with the first 93 amino acids deleted from SSI-1 and which has the N-terminal sequence [sequence]
5 mL of supernatant were used to assay STS and SBE activities as previously described (Preiss) with minor modification. The reaction mixture for STS contained 100 mM Bicine buffer, 10 mg/mL glycogen, 0.5 mg/mL BSA, 0.5 M sodium citrate, 25 mM potassium acetate, 10 mM GSH, 3 mM [^14C]-ADPGlc (500 dpm/nmol) and enzyme in a final volume of 0.1 mL. The reaction was carried out at 25° C. for 15 min and terminated by boiling for 2 min. The unincorporated [^14C]-ADPGlc was separated with Dowex anion exchange column (200-400 mesh, Sigma Chemical Co.). One unit of activity is defined as 1 nmol Glc incorporated into the a-glucan per min at 25° C.
For the recombinant SS purification, the cell pellet was resuspended in sonication buffer (50 mM Tris-acetate, pH 7.5, 10 mM EDTA, and 5 mMDTT; 7 ml buffer per gram of cell mass), and cells were lysed using a Fisher 550 Sonic Dismembrator with 5×1 min. bursts with 30 sec. intervals. The homogenate was centrifuged at 9600 g for 30 minutes. SSI in the supernatant was then precipitated by slowly adding neutralized saturated ammonium sulfate to 40% saturation. After stirring on ice for an additional 50 minutes, proteins were collected by centrifugation at 12500 g for 45 minutes. The protein pellet was then redissolved in buffer A (50 mM Tris, pH 5.5, 1 mM EDTA, and 5 mM DTT) containing 0.1 M KCl and dialyzed against the same buffer, with one change of buffer. After dialysis, the sample was centrifuged at 13000 g for 20 minutes to remove insoluble materials. The resulting supernatant was loaded onto amylase affinity column pre-equilibrated with dialysis buffer, and the flow through was collected. […]

In the case of `Nc1ncnc2c1ncn2[C@@H]1O[C@H](COP(=O)(O)OP(=O)(O)O[C@H]2O[C@H](CO)[C@@H](O)[C@H](O)[C@H]2O)[C@@H](O)[C@H]1O` [ADPGlc, adenosine diphosphate glucose], the “Vm (ADPGlc kinetics)” value (+citrate) is reported as 32.6 ± 0.8 μmol/min/mg protein and the “Vm (ADPGlc kinetics)” value (−citrate) is reported as 11.7 ± 0.7 μmol/min/mg protein.
